In ChEMBL document CHEMBL1201862, “PubChem BioAssay data set” (2004):
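Values below derive from 48-hour exposures of cells grown in 96-well plates, with endpoints linearly interpolated between the two concentrations bracketing the appropriate inhibition level. GI50 is the concentration that inhibits growth by half.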 Active and inactive are the calls of the source. Rule as the data show it: active = GI50 up to about 1.1 µM and inactive = higher. Where a SMILES comes first, the peptide text is derived from it. [ ]: non-standard residue; d: D form. The star is where a group is joined. NMeAc5c = CNC1(C(=O)O)CCCC1; Boc = CC(C)(C)OC(=O)*; OBn = c1ccc(CO*)cc1

Tests used:
Test in all cases: NCI-60 cell line screen, 48 h
A549 = test system: A549
CCRF-CEM = test system: CCRF-CEM
DU-145 = test system: DU-145
HCC 2998 = test system: HCC 2998
HOP-92 = test system: HOP-92
Hs-578T = test system: Hs-578T
M14 = test system: M14
MDA-N = test system: MDA-N
MOLT-4 = test system: MOLT-4
Malme-3M = test system: Malme-3M
NCI-H226 = test system: NCI-H226
NCI-H23 = test system: NCI-H23
NCI/ADR-RES = test system: NCI/ADR-RES
OVCAR-8 = test system: OVCAR-8
PC-3 = test system: PC-3
SF-268 = test system: SF-268
SK-MEL-28 = test system: SK-MEL-28
SK-MEL-5 = test system: SK-MEL-5
SR = test system: SR
UO-31 = test system: UO-31

Measured: GI50

CC(C)Oc1cccc(N2C(NCc3c[nH]c4ccccc34)=Nc3ccncc3S2(=O)=O)c1
inactive: A549 20.4 µM | CCRF-CEM 35.2 µM | DU-145 42.8 µM | HCC 2998 25.5 µM | HOP-92 15.4 µM | Hs-578T 16.2 µM | M14 21 µM | MDA-N 31.6 µM | MOLT-4 16.7 µM | Malme-3M 20.5 µM | NCI-H226 45.4 µM | NCI-H23 22.8 µM | NCI/ADR-RES 19.7 µM | OVCAR-8 29.9 µM | PC-3 16.3 µM | SF-268 32.2 µM | SK-MEL-28 45.8 µM | SK-MEL-5 13.9 µM | SR 28.8 µM | UO-31 47.4 µM

CCCCCCCCOc1ccc(/C=C/C2=[N+](CCO)CCO2)cc1
inactive: A549 2.7 µM | CCRF-CEM 3.08 µM | DU-145 5 µM | HCC 2998 3.47 µM | HOP-92 2.34 µM | Hs-578T 3.53 µM | M14 3.8 µM | MDA-N 3.56 µM | MOLT-4 3.65 µM | Malme-3M 3.04 µM | NCI-H226 3.01 µM | NCI-H23 2.23 µM | NCI/ADR-RES 12.6 µM | OVCAR-8 3.14 µM | PC-3 2.94 µM | SF-268 5.27 µM | SK-MEL-28 4.53 µM | SK-MEL-5 2.56 µM | SR 2.19 µM | UO-31 12.3 µM

CN(C(=O)C(Cc1ccccc1)NC(=O)OC(C)(C)C)C1(C(=O)NC(Cc2ccccc2)C(=O)OCc2ccccc2)CCCC1 (stereo not drawn) (Boc-Phe-[NMeAc5c]-Phe-OBn; configuration not given here)
inactive: A549 33.3 µM | CCRF-CEM 39.7 µM | DU-145 58.3 µM | HCC 2998 77.4 µM | HOP-92 53.7 µM | Hs-578T 41.3 µM | M14 23.1 µM | MDA-N 23.2 µM | MOLT-4 26.9 µM | Malme-3M > 100 µM | NCI-H226 40.6 µM | NCI-H23 43.7 µM | NCI/ADR-RES 27.7 µM | OVCAR-8 38 µM | PC-3 28.4 µM | SF-268 35.4 µM | SK-MEL-28 58.1 µM | SK-MEL-5 59.6 µM | SR 22.2 µM | UO-31 25.9 µM
